In US12617773B2, “Azetidin-3-ylmethanol derivatives as CCR6 receptor modulators” (Idorsia Pharmaceuticals Ltd, priority 2020, dated 2026):

target: T1, human CCR6 (Homo sapiens, UniProt P51684); assay: FLIPR assay (inhibition of CCL20-induced calcium signal); assay type: cell-based; settings: HEK-293 cells expressing human CCR6; mean values where determined several times; read-out: FLIPR IC50
T1 construct: expressed in transfected cells; host or cells: HEK-293
T1 sequence (P51684 1-374): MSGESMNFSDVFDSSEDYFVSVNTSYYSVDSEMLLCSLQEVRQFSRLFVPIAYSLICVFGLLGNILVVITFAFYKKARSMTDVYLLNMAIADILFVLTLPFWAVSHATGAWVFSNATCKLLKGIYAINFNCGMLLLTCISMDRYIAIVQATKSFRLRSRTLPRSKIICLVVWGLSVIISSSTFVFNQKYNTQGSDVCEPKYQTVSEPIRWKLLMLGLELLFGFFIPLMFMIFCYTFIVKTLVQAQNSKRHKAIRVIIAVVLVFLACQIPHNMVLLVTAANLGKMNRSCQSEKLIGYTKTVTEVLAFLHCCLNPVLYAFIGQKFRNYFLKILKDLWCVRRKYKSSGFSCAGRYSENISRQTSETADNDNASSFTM
How it was run: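 Dye-loaded HEK-293 cells expressing human CCR6 were preincubated with compound for 30 min at room temperature in the dark, then challenged with 10 nM CCL20 (final). Fluorescence was tracked on FLIPR, and baseline-subtracted peak emission over base after agonist addition gave inhibition dose-response curves for IC50.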

SMILES	IC50 [µM]
Cc1cc([C@](C)(O)C#Cc2cncc([C@@](O)(c3ccc(C(C)C)cc3)C3(C)CN(C)C3)c2)ncn1 [Example 400]	0.16
CC(C)c1ccc(C(O)(c2ccnc(N3CCCCC3)c2)C2(C)CN(C)C2)cc1 (stereo not drawn) [Example 275]	0.0671
Cc1cc(C(C)(O)C#Cc2cncc(C(O)(c3ccc(C(C)C)cc3)C3(C)CN(C)C3)c2)ncn1 (stereo not drawn) [Example 40]	0.0925
CC(C)c1ccc([C@](O)(c2cncc(-c3noc(C4CC5CCC4O5)n3)c2)C2(C)CN(C)C2)cc1 (stereo partly drawn) [Example 131]	0.0608
CC(C)c1ccc([C@](O)(c2cncc(-c3nc([C@@H]4C[C@H]5CC[C@@H]4O5)no3)c2)C2(C)CN(C)C2)cc1 [Example 92]	0.0815
CC(C)c1ccc([C@](O)(c2cncc(CCC3(O)CC3)c2)C2(C)CN(C)C2)cc1 [Example 54]	0.0669
CC(C)c1ccc([C@](O)(c2cncc(-c3noc([C@@H]4CCC(=O)N4)n3)c2)C2(C)CN(C)C2)cc1 [Example 359]	0.234
CC1([C@](O)(c2ccc(OC(F)(F)F)cc2)c2cncc(N3CCCC3)c2)CN(C2CC2)C1 [Example 9, (R)-(1-Cyclopropyl-3-methyl-azetidin-3-yl)-(5-pyrrolidin-1-yl-pyridin-3-yl)-(4-trifluoromethoxy-phenyl)-methanol]	0.0747
Cc1ncc(C(C)(O)CCc2cncc([C@@](O)(c3ccc(C(C)C)cc3)C3(C)CN(C)C3)c2)s1 (stereo partly drawn) [Example 647]	0.0763
CN1CC(C)(C(O)(c2ccc(CC(C)(C)C)cc2)c2cncc(-c3noc(C(C)(C)O)n3)c2)C1 (stereo not drawn) [Example 564]	0.0919
CC(C)c1ccc([C@](O)(c2cncc(C(=O)NC3CCOCC3)c2)C2(C)CN(C)C2)cc1 [Example 308]	0.515
CC(C)COc1cc([C@@](O)(c2ccc(C(C)C)cc2)C2(C)CN(C)C2)ccn1 [Example 164, (S)-(1,3-Dimethyl-azetidin-3-yl)-(2-isobutoxy-pyridin-4-yl)-(4-isopropyl-phenyl)-methanol]	0.0189
CC(=O)N1CCC(CCc2cncc([C@@](O)(c3ccc(C(C)C)cc3)C3(C)CN(C)C3)c2)CC1 [Example 636]	0.107
CC(C)c1ccc([C@](O)(c2cncc(CCC(C)(C)O)c2)C2(C)CN(C)C2)cc1 [Example 50]	0.0902
CC(C)c1ccc([C@](O)(c2cncc(N(C)CCO)c2)C2(C)CN(C)C2)cc1 [Example 191, 2-({5-[(R)-(1,3-Dimethyl-azetidin-3-yl)-hydroxy-(4-isopropyl-phenyl)-methyl]-pyridin-3-yl}-methyl-amino)-ethanol]	0.317
CC(C)c1ccc([C@](O)(c2cncc(-c3noc(C4CC(=O)N(C)C4)n3)c2)C2(C)CN(C)C2)cc1 (single isomer, unassigned) [Example 509]	0.208
CC(=O)N1CCC(c2nc(-c3cncc([C@@](O)(c4ccc(CC(F)(F)F)cc4)C4(C)CN(C)C4)c3)no2)CC1 [Example 576]	0.267
CCc1ccc([C@](O)(c2cncc(N3C[C@@H]4C[C@H]3CO4)c2)C2(C)CN(C)C2)cc1 [Example 244]	0.274
CN1CC(C)([C@](O)(c2ccc(S(F)(F)(F)(F)F)cc2)c2cncc(-c3noc(C(C)(C)O)n3)c2)C1 [Example 538]	0.145
CC(C)c1ccc([C@](O)(c2cncc(-c3noc(CCn4cccn4)n3)c2)C2(C)CN(C)C2)cc1 [Example 139, (R)-(1,3-Dimethyl-azetidin-3-yl)-(4-isopropyl-phenyl)-{5-[5-(2-pyrazol-1-yl-ethyl)-[1,2,4]oxadiazol-3-yl]-pyridin-3-yl}-methanol]	0.0666
[2H]C([2H])([2H])C(=O)NC(C)(C)Cc1nc(-c2cncc([C@@](O)(c3ccc(C(C)C)cc3)C3(C)CN(C)C3)c2)no1 [Example 141]	0.211
Cc1nc(C(O)C#Cc2cncc([C@@](O)(c3ccc(C(C)C)cc3)C3(C)CN(C)C3)c2)cs1 (stereo partly drawn) [Example 31]	0.0812
[2H]C([2H])([2H])C(=O)N(C)CCc1nc(-c2cncc([C@@](O)(c3ccc(C(C)C)cc3)C3(C)CN(C)C3)c2)no1 [Example 145, (R)—N-(2-(3-(5-((1,3-dimethylazetidin-3-yl)(hydroxy)(4-isopropylphenyl)methyl)pyridin-3-yl)-1,2,4-oxadiazol-5-yl)-ethyl)-N-methylacetamide-d3]	0.274
CCc1cncc([C@@](O)(c2ccc(C(C)C)cc2)C2(C)CN(C)C2)c1 [Example 301, (R)-(1,3-Dimethyl-azetidin-3-yl)-(5-ethyl-pyridin-3-yl)-(4-isopropyl-phenyl)-methanol]	0.06
CC(=O)N1CCC(c2nc(-c3cncc([C@@](O)(c4cc(F)c(C(C)C)c(F)c4)C4(C)CN(C)C4)c3)no2)CC1 [Example 559]	0.0856
CC(C)c1ccc([C@](O)(c2cncc(-c3noc(C4CCN(C(=O)C5CCOCC5)CC4)n3)c2)C2(C)CN(C)C2)cc1 [Example 376]	0.102
[2H]C([2H])([2H])C(=O)N(C)C1(c2nc(-c3cncc([C@@](O)(c4ccc(C(C)C)cc4)C4(C)CN(C)C4)c3)no2)CC1 [Example 333]	0.113

The remaining lines, values ahead:

IC50 [µM]	SMILES
0.0434	CC(C)c1ccc([C@](O)(c2ccnc(N3CCC(F)(F)C3)c2)C2(C)CN(C)C2)cc1 [Example 162, (S)-[2-(3,3-Difluoro-pyrrolidin-1-yl)-pyridin-4-yl]-(1,3-dimethyl-azetidin-3-yl)-(4-isopropyl-phenyl)-methanol]
0.0279	CN1CC(C)([C@](O)(c2ccc(C3(C(F)(F)F)CC3)cc2)c2cncc(N3C[C@@H](F)[C@@H](F)C3)c2)C1 [Example 185]
0.0431	COC(C)(C)c1nc(-c2cncc([C@@](O)(c3ccc(C(C)C)cc3)C3(C)CN(C)C3)c2)no1 [Example 118]
0.0115	COc1cc(C(C)(O)C#Cc2cncc([C@@](O)(c3ccc(C(C)C)cc3)C3(C)CN(C)C3)c2)nc(OC)n1 (single isomer, unassigned) [Example 627]
0.0374	CC(C)c1ccc([C@](O)(c2ccnc(C3CCCC3)c2)C2(C)CN(C)C2)cc1 [Example 280, (S)-(2-Cyclopentyl-pyridin-4-yl)-(1,3-dimethyl-azetidin-3-yl)-(4-isopropyl-phenyl)-methanol]
0.0236	CC(C)c1ccc([C@](O)(c2cncc(C3CCN(c4ccccn4)CC3)c2)C2(C)CN(C)C2)cc1 [Example 315, (R)-(1,3-Dimethyl-azetidin-3-yl)-(4-isopropyl-phenyl)-(3′,4′,5′,6′-tetrahydro-2′H-[2,1′; 4′,3″]terpyridin-5″-yl)-methanol]
0.0535	Cc1cnc(C(C)(O)C#Cc2cncc([C@@](O)(c3ccc(C(C)C)cc3)C3(C)CN(C)C3)c2)cn1 (stereo partly drawn) [Example 617]
0.047	CN1CC(C)([C@](O)(c2ccc(C3(C(F)(F)F)CC3)cc2)c2cncc(-c3noc(C(C)(C)O)n3)c2)C1 [Example 534]
0.0408	CC(C)c1ccc([C@](O)(c2cncc(-c3noc(CC4CCCO4)n3)c2)C2(C)CN(C)C2)cc1 (stereo partly drawn) [Example 116]
0.0507	CC(C)c1ccc([C@](O)(c2cnnc(N3CC4(CCCCC4)OC3=O)c2)C2(C)CN(C)C2)cc1 [Example 440]
0.0299	CC(C)c1ccc([C@](O)(c2cncc(N3CC4(CC5(CCC5)C4)OC3=O)c2)C2(C)CN(C)C2)cc1 [Example 202]
0.0475	CC(C)c1ccc([C@](O)(c2cncc(N3CCC[C@@H]3C)c2)C2(C)CN(C)C2)cc1 [Example 178]
